Converted amounts (≈) assume the structure as drawn. Like-named read-outs stand apart in the source and are kept apart here.
Legend:
Type in all cases: cell-based
[1] = tested on: Acinetobacter baumannii SR24396; assay: Minimum Inhibitory Concentration (MIC), agar plate incubation, Japan Society for Chemotherapy standard method
Protocol: (§1) The antimicrobial activity in vitro of the present compound (I) was determined.
(§2) Measurement of Minimum Inhibitory Concentration (MIC, μg/ml) was conducted according to the standard method of the Japan Society for Chemotherapy and the amount of bacteria for inoculation was 1000 cfu/spot, and sensitive disc medium was used as the test medium, and conducted using agar plate incubation.
(§3) In the tables, the unit of the values of inhibitory activity is μg/ml.

[2] = tested on: Klebsiella pneumoniae ATCC 700603; assay: as above
Protocol: as §1, §2, §3

[3] = tested on: Pseudomonas aeruginosa SR24; assay: as above; conditions: Pseudomonas aeruginosa SR24, no enzyme, ceftazidime sensitive strain, 1000 cfu/spot, sensitive disc medium; for MIC: read-out: Minimum Inhibitory Concentration (MIC)
Protocol: as §1, §2, §3

[4] = tested on: Pseudomonas aeruginosa SR27060; assay: as above
Protocol: as §1, §2, §3

[5] = tested on: Stenotrophomonas maltophilia SR21970; assay: Minimum Inhibitory Concentration (MIC), agar plate incubation, CLSI method
Protocol: as §1
Measurement of Minimum Inhibitory Concentration (MIC, μg/ml) was conducted according to the CLSI (Clinical and Laboratory Standards Institute) and the amount of bacteria for inoculation was 10000 cfu/spot, and Mueller-Hinton agar medium was used as the test medium, and conducted using agar plate incubation.
as §3

[6] = Acinetobacter baumannii SR24396, no enzyme, 1000 cfu/spot, sensitive disc medium, read-out: Minimum Inhibitory Concentration (MIC)
[7] = ATCC700603, Klebsiella pneumoniae ATCC 700603, SHV-18, ESBL producer strain, 1000 cfu/spot, sensitive disc medium, read-out: Minimum Inhibitory Concentration (MIC)
[8] = Pseudomonas aeruginosa SR27060, IMP-1, MBL producer strain (carbapenem resistant strain), 1000 cfu/spot, sensitive disc medium, read-out: Minimum Inhibitory Concentration (MIC)
[9] = Stenotrophomonas maltophilia SR21970, L-1, MBL producer strain (carbapenem resistant strain), 10000 cfu/spot, Mueller-Hinton agar medium, read-out: Minimum Inhibitory Concentration (MIC)
[10] = Acinetobacter baumannii SR24396, no enzyme, 1000 cfu/spot, sensitive disc medium
[11] = Klebsiella pneumoniae ATCC 700603, SHV-18, ESBL producer strain, 1000 cfu/spot, sensitive disc medium
[12] = Pseudomonas aeruginosa SR27060, IMP-1, MBL producer strain (carbapenem resistant strain), 1000 cfu/spot, sensitive disc medium
[13] = Stenotrophomonas maltophilia SR21970, L-1, MBL producer strain (carbapenem resistant strain), 10000 cfu/spot, Mueller-Hinton agar medium
[14] = Acinetobacter baumannii, SR24396, read-out: Minimum Inhibitory Concentration (MIC)
[15] = Klebsiella pneumoniae, ATCC700603, read-out: Minimum Inhibitory Concentration (MIC)
[16] = Pseudomonas aeruginosa, SR27060, read-out: Minimum Inhibitory Concentration (MIC)
[17] = Stenotrophomonas maltophilia, SR21970, read-out: Minimum Inhibitory Concentration (MIC)

| Structure (SMILES) | Minimum Inhibitory Concentration (MIC) [1, 10] | Minimum Inhibitory Concentration (MIC) [2, 11] | Minimum Inhibitory Concentration (MIC) [3] | Minimum Inhibitory Concentration (MIC) [4, 12] | Minimum Inhibitory Concentration (MIC) [5, 13] | further results |
| --- | --- | --- | --- | --- | --- | --- |
| CC(C)(O/N=C(\C(=O)N[C@@H]1C(=O)N2C(C(=O)[O-])=C(C[N+]3(Cc4nnc(-c5ccc(O)c(O)c5Cl)o4)CCCC3)CS[C@H]12)c1csc(N)n1)C(=O)[O-].[Na+] [Compound I-1] | – | – | – | – | – | MIC [1, 6]: 0.25 µg/mL; MIC [2, 7]: 0.25 µg/mL; MIC [3]: 0.063 µg/mL; MIC [4, 8]: 0.25 µg/mL; MIC [5, 9]: 1 µg/mL |
| CC(C)(O/N=C(\C(=O)N[C@@H]1C(=O)N2C(C(=O)[O-])=C(C[N+]34CCC(CC3)N(C(=O)c3ccc(O)c(O)c3Cl)CC4)CS[C@H]12)c1csc(N)n1)C(=O)[O-].[Na+] [Compound I-5] | – | – | – | – | – | MIC [1, 6]: 0.125 µg/mL; MIC [2, 7]: 0.25 µg/mL; MIC [3]: 0.063 µg/mL; MIC [4, 8]: 0.5 µg/mL; MIC [5, 9]: 0.5 µg/mL |
| CC(C)(O/N=C(\C(=O)N[C@@H]1C(=O)N2C(C(=O)[O-])=C(C[N@+]34CC[C@H](C3)N(C(=O)c3ccc(O)c(O)c3Cl)CC4)CS[C@H]12)c1csc(N)n1)C(=O)[O-].[Na+] [Compound I-6] | – | – | – | – | – | MIC [1, 6]: 0.125 µg/mL; MIC [2, 7]: 1 µg/mL; MIC [3]: 0.063 µg/mL; MIC [4, 8]: 0.5 µg/mL; MIC [5, 9]: 1 µg/mL |
| Nc1nc(/C(=N/O[C@@H](CC(=O)[O-])C(=O)[O-])C(=O)N[C@@H]2C(=O)N3C(C(=O)[O-])=C(C[N+]45CCC(CC4)N(C(=O)c4ccc(O)c(O)c4Cl)CC5)CS[C@H]23)cs1.[Na+].[Na+] [Compound I-9] | – | – | – | – | – | MIC [1, 6]: 0.125 µg/mL; MIC [2, 7]: 0.125 µg/mL; MIC [3]: 0.063 µg/mL; MIC [4, 8]: 0.25 µg/mL; MIC [5, 9]: 0.5 µg/mL |
| Nc1nc(C(=NOC(CC(=O)[O-])C(=O)[O-])C(=O)NC2C(=O)N3C(C(=O)[O-])=C(C[N+]45CCCC4CN(C(=O)c4ccc(O)c(O)c4Cl)CC5)CSC23)cs1.[Na+].[Na+] (centres unmarked) [Compound I-14] | 0.125 µg/mL | 0.5 µg/mL | 0.125 µg/mL | 0.25 µg/mL | 1 µg/mL | – |
| CC(C)(ON=C(C(=O)NC1C(=O)N2C(C(=O)[O-])=C(C[N+]34CCCC3CN(C(=O)c3ccc(O)c(O)c3Cl)CC4)CSC12)c1csc(N)n1)C(=O)[O-].[Na+] (centres unmarked) [Compound I-15] | 0.25 µg/mL | 0.25 µg/mL | 0.063 µg/mL | 0.5 µg/mL | 1 µg/mL | – |
| CC(ON=C(C(=O)NC1C(=O)N2C(C(=O)[O-])=C(C[N+]34CCCC3CN(C(=O)c3ccc(O)c(O)c3Cl)CC4)CSC12)c1csc(N)n1)C(=O)[O-].[Na+] (centres unmarked) [Compound I-18] | 0.125 µg/mL | 0.5 µg/mL | 0.063 µg/mL | 1 µg/mL | 2 µg/mL | – |
| CC(C)(O/N=C(\C(=O)N[C@@H]1C(=O)N2C(C(=O)[O-])=C(C[N+]34CCC(CC3)[C@H](NC(=O)c3ccc(O)c(O)c3Cl)C4)CS[C@H]12)c1csc(N)n1)C(=O)O [Compound I-19] | – | – | – | – | – | MIC [1, 6]: 0.125 µg/mL (≈ 0.164 µM); MIC [2, 7]: 0.5 µg/mL (≈ 0.654 µM); MIC [3]: 0.125 µg/mL (≈ 0.164 µM); MIC [4, 8]: 0.125 µg/mL (≈ 0.164 µM); MIC [5, 9]: 0.5 µg/mL (≈ 0.654 µM) |
| CC(C)(O/N=C(\C(=O)N[C@@H]1C(=O)N2C(C(=O)[O-])=C(C[N+](C)(C)C3CCN(C(=O)c4ccc(O)c(O)c4Cl)CC3)CS[C@H]12)c1csc(N)n1)C(=O)[O-].[Na+] [Compound I-21] | 0.125 µg/mL | 0.5 µg/mL | 0.125 µg/mL | 1 µg/mL | 1 µg/mL | – |
| CC(ON=C(C(=O)NC1C(=O)N2C(C(=O)[O-])=C(C[N+]34CCC(CC3)N(C(=O)c3ccc(O)c(O)c3Cl)CC4)CSC12)c1csc(N)n1)C(=O)[O-].[Na+] (centres unmarked) [Compound I-23] | 0.125 µg/mL | 0.5 µg/mL | 0.063 µg/mL | 0.5 µg/mL | 1 µg/mL | – |
| CC(C)(ON=C(C(=O)NC1C(=O)N2C(C(=O)[O-])=C(C[N+]34CCCC3CN(C(=O)c3ccc(O)c(O)c3Cl)CC4)CSC12)c1csc(N)n1)C(=O)[O-].[Na+] (centres unmarked) [Compound I-31] | 0.25 µg/mL | 1 µg/mL | 0.063 µg/mL | 0.5 µg/mL | 1 µg/mL | – |
| CC(C)(O/N=C(\C(=O)N[C@@H]1C(=O)N2C(C(=O)[O-])=C(C[N+]34CCC(CC3)N(C(=O)c3ccc(O)c(O)c3Cl)CC4)CS[C@H]12)c1nsc(N)n1)C(=O)[O-].[Na+] [Compound I-34] | 0.125 µg/mL | 0.5 µg/mL | 0.063 µg/mL | 0.5 µg/mL | 0.5 µg/mL | – |
| CC(ON=C(C(=O)NC1C(=O)N2C(C(=O)[O-])=C(C[N+]34CCC(CNC(=O)c5ccc(O)c(O)c5Cl)(CC3)CC4)CSC12)c1csc(N)n1)C(=O)[O-].[Na+] (centres unmarked) [Compound I-35] | 0.5 µg/mL | 1 µg/mL | 0.063 µg/mL | 0.25 µg/mL | 1 µg/mL | – |
| CC(ON=C(C(=O)NC1C(=O)N2C(C(=O)[O-])=C(C[N+]3(CCNC(=O)c4ccc(O)c(O)c4Cl)CCCC3)CSC12)c1csc(N)n1)C(=O)[O-].[Na+] (centres unmarked) [Compound I-36] | 0.5 µg/mL | 0.5 µg/mL | 0.125 µg/mL | 0.25 µg/mL | 1 µg/mL | – |
| CCC(ON=C(C(=O)NC1C(=O)N2C(C(=O)[O-])=C(C[N+]34CCCC3CN(C(=O)c3ccc(O)c(O)c3Cl)CC4)CSC12)c1csc(N)n1)C(=O)[O-].[Na+] (centres unmarked) [Compound I-37] | 0.125 µg/mL | 0.5 µg/mL | 0.125 µg/mL | 1 µg/mL | 1 µg/mL | – |
| NC(=O)CC(ON=C(C(=O)NC1C(=O)N2C(C(=O)[O-])=C(C[N+]34CCCC3CN(C(=O)c3ccc(O)c(O)c3Cl)CC4)CSC12)c1csc(N)n1)C(=O)[O-].[Na+] (centres unmarked) [Compound I-38] | 0.25 µg/mL | 1 µg/mL | 0.125 µg/mL | 2 µg/mL | 1 µg/mL | – |
| C[N+]1(CC2=C(C(=O)[O-])N3C(=O)C(NC(=O)C(=NOC(CC(=O)[O-])C(=O)[O-])c4csc(N)n4)C3SC2)CC2CN(C(=O)c3ccc(O)c(O)c3Cl)CC2C1.[Na+].[Na+] (centres unmarked) [Compound I-41] | 0.125 µg/mL | 0.5 µg/mL | 0.125 µg/mL | 0.5 µg/mL | 1 µg/mL | – |
| CC(C)(O/N=C(\C(=O)N[C@@H]1C(=O)N2C(C(=O)O)=C(C[N+]3(C)[C@@H]4CC[C@H]3C[C@@H](NC(=O)c3cc(O)c(O)cc3Cl)C4)CS[C@H]12)c1csc(N)n1)C(=O)[O-] (some centres unmarked) [II-55] | – | – | – | – | – | MIC [1, 14]: 0.25 µg/mL (≈ 0.321 µM); MIC [2, 15]: 0.25 µg/mL (≈ 0.321 µM); MIC [4, 16]: 0.5 µg/mL (≈ 0.642 µM); MIC [5, 17]: 0.5 µg/mL (≈ 0.642 µM) |
| C[N+]1(CC2=C(C(=O)[O-])N3C(=O)C(NC(=O)C(=NOC(CC(=O)O)C(=O)[O-])c4csc(N)n4)C3SC2)C2CCC1CC(NC(=O)c1cc(O)c(O)cc1Cl)C2.[Na+] (centres unmarked) [II-56] | 0.25 µg/mL | 0.25 µg/mL | – | 0.5 µg/mL | 0.5 µg/mL | – |
| CC(C)(O/N=C(\C(=O)N[C@@H]1C(=O)N2C(C(=O)O)=C(C[N@+]3(C)[C@@H]4CC[C@H]3C[C@@H](NC(=O)c3cc(F)c(O)c(O)c3F)C4)CS[C@H]12)c1csc(N)n1)C(=O)[O-] [III-9] | – | – | – | – | – | MIC [1, 14]: 0.125 µg/mL (≈ 0.16 µM); MIC [2, 15]: 0.125 µg/mL (≈ 0.16 µM); MIC [4, 16]: 0.25 µg/mL (≈ 0.321 µM); MIC [5, 17]: 0.5 µg/mL (≈ 0.641 µM) |
| C[N+]1(CC2=C(C(=O)[O-])N3C(=O)C(NC(=O)C(=NOC(CC(=O)O)C(=O)[O-])c4csc(N)n4)C3SC2)C2CCC1CC(NC(=O)c1cc(F)c(O)c(O)c1F)C2.[Na+] (centres unmarked) [III-10] | 0.125 µg/mL | 0.125 µg/mL | – | 0.25 µg/mL | 0.5 µg/mL | – |

Source: patent US9145425B2, “Cephem compound having catechol group” (SHIONOGI & CO., LTD., priority 2010, dated 2015)
